Results on 2 compounds are retold here after patent publication US20180339051A1, “COMPOSITION FOR TOPICAL APPLICATION COMPRISING DIMETHYL ISOSORBIDE, A POLYOL, AND A PHENOLIC OR POLYPHENOLIC ANTIOXIDANT” (MEDSKIN SOLUTIONS DR. SUWELACK AG, priority 2015, published 2018).

The format of data set [1] is physicochemical. The method, then:
Concretely, 10 ml of a pure solvent or a solubiliser mixture were stirred in a beaker at ambient temperature. An amount of 2 mg phenolic or polyphenolic antioxidant was dispersed in the mixture and stirred. If the mixture became clear, the addition of phenolic or polyphenolic antioxidant was repeated until the mixture remained turbid even after stirring for 10 min. The maximum solubility was calculated as a percentage by mass (wt %) based on this experiment.

The subject of another data set is pig skin biopsies. Briefly: Skin Antioxidative Potential (SAP), ESR with test radical TEMPO, ex vivo. Format: cell-based. To be noted: normalized to placebo-treated skin = 100%. From the text:
Skin has intrinsic antioxidative protection thanks to the many enzymatic and non-enzymatic antioxidant systems present in the epidermis. A Skin Antioxidative Potential (SAP) can be measured by ESR spectroscopy using an active test radical that is reduced by the antioxidant systems inside the epidermis and dermis. The SAP value is a quantitative ex vivo determination of the antioxidant activity inside the epidermal and dermal layers of the skin.
In contrast, if the SAP value is below 100%, the topical treatment has diminished the skin's antioxidant defense system. Topical treatments with such negative effects on the skin antioxidant system are for example application of a chemical such as detergents or physical stress such as sun exposure.
The method entails applying the composition comprising the active substance (in this case resveratrol) to pig skin biopsies and testing the antioxidative power of the active substance. The antioxidative effect is dependent on whether the active substance is absorbed into the skin.
The measurements mere carried out as follows. Skin biopsies obtained from local slaughterhouse (pig skin, 6 month old animals, external lobe of the ears) were washed, the subdermal fat was removed and the skin was cut in 2×2 cm pieces.
Emulsions made as in example 2, with or without resveratrol, and with or without a solubiliser mix (dimethyl isosorbide, 1,5-pentanediol and panthenol) were applied on the epidermal layer of the biopsies. Skin pieces were placed on a filter paper saturated with the test radical (TEMPO, 2,2,6,6-tetramethyl piperidine-N-oxyl, Sigma-Aldrich, Munich, Germany). Skin biopsies of 4 cm were taken, placed in a special ESR tissue cell and ESR spectra of the test radical were recorded in a time-course experiment.
The amplitudes of the ESR spectra were plotted against time and the obtained kinetics were fitted using a mono-exponential first order decay algorithm.
The measurements were made after penetration times of between ten minutes and four hours. All values were normalized to the placebo-treated skin. […]

Consider `Oc1ccc(/C=C/c2cc(O)cc(O)c2)cc1` [Resveratrol, 3,5,4′-trihydroxy-trans-stilbene], for which, in data set [1], the solubility in water result is “less than 0.01 wt %”.

Turning to tocopherol, the figures for the SAP value in the data set on pig skin biopsies (penetration time 10 min), in the data set with pig skin biopsies (penetration time 30 min) and in the data set on pig skin biopsies (penetration time 120 min) were 114 ± 3%, 103 ± 6% and 100 ± 6%, respectively.
